Columns and labels:
[1] = Displacement of [3H]SCH23390 from dopamine D1 like receptor in rat brain homogenates; format: tissue-based
[2] = Displacement of [3H]Spiperone from dopamine D2 like receptor in rat brain homogenates; format: tissue-based
D(3) dopamine receptor [3] = biological target: D(3) dopamine receptor (Rattus norvegicus, UniProt P19020); assay: Displacement of [3H]-R(+)-7-OHDPAT from dopamine D3 receptor in rat brain homogenates; format: tissue-based
Rattus norvegicus = species on record: Rattus norvegicus; assay: Selectivity ratio of Ki for dopamine D1 like receptor in rat brain homogenates to Ki for dopamine D3 receptor in rat brain homogenates; format: tissue-based
D(3) dopamine receptor [4] = biological target: D(3) dopamine receptor (Homo sapiens, UniProt P35462); assay: Agonist activity at human dopamine D3 receptor expressed in CHO cells by mitogenesis assay; format: functional, cell-based
[5] = Selectivity ratio of dopamine D2 receptor to dopamine D3 receptor
[6] = Selectivity ratio of dopamine D1 like receptor to dopamine D3 receptor

Sequence of D(3) dopamine receptor (Rattus norvegicus, UniProt P19020) (P19020 whole entry): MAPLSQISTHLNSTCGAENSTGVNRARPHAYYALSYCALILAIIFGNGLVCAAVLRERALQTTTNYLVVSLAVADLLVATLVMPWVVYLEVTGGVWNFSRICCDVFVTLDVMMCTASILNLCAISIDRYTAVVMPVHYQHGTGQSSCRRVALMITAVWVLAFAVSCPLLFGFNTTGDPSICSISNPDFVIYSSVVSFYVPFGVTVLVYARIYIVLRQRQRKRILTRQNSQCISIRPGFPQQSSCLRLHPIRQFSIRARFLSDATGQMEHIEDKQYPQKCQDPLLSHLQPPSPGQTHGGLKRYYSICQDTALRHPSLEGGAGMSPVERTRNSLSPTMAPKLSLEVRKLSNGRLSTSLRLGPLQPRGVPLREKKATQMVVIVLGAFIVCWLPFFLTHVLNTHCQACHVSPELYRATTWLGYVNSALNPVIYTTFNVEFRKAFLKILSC
Sequence of D(3) dopamine receptor (Homo sapiens, UniProt P35462) (P35462 whole entry): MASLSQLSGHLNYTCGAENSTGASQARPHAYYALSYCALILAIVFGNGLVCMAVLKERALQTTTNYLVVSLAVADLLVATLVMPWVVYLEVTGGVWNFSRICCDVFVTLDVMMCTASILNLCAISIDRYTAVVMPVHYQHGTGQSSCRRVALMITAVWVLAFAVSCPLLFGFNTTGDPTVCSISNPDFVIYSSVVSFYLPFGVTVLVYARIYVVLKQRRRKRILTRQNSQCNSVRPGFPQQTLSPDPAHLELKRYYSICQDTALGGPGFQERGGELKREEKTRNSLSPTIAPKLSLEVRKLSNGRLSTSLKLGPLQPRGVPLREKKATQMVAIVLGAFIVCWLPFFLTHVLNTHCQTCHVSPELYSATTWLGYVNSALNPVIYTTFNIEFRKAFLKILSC

SMILES	Ki [1] [µM]	Ki [2] [µM]	Ki (D(3) dopamine receptor [3]) [µM]	Ratio Ki (Rattus norvegicus)	EC50 (D(3) dopamine receptor [4]) [µM]	Selectivity ratio [5]	Selectivity ratio [6]
CCCN(CC[C@H]1CC[C@H](NC(=O)c2cccc3ncccc23)CC1)[C@H]1CCc2nc(N)sc2C1	44	0.072	0.0016	27100			
CCCN(CC[C@H]1CC[C@H](NC(=O)c2ccccc2-n2cccn2)CC1)[C@H]1CCc2nc(N)sc2C1	46.9	0.045	0.002	23800			
CCCN(CC[C@H]1CC[C@H](NS(=O)(=O)c2cccnc2Cl)CC1)[C@H]1CCc2nc(N)sc2C1	17.4	0.17	0.00038	46300	0.0015		
CCCN(CC[C@H]1CC[C@H](NC(=O)c2cccc(-c3noc(C)n3)c2)CC1)[C@H]1CCc2nc(N)sc2C1	9.94	0.359	0.00073	13700	0.0043		
CCCN(CC[C@H]1CC[C@H](NC(=O)/C=C/c2cccc(Cl)c2)CC1)[C@H]1CCc2nc(N)sc2C1	5.77	0.052	0.0012	4640			
COc1ccccc1N1CCN(CC(O)CCNC(=O)c2cc3ccccc3[nH]2)CC1 (stereo unspecified)						100	> 1000
CCCN(CC[C@H]1CC[C@H](NS(=O)(=O)c2cnccc2Cl)CC1)[C@H]1CCc2nc(N)sc2C1	10.7		0.00093				
CCCN(CC[C@H]1CC[C@H](NS(=O)(=O)c2cccc(Cl)c2)CC1)[C@H]1CCc2nc(N)sc2C1	5.55		0.0011				
CCCN(CC[C@H]1CC[C@H](NS(=O)(=O)c2cccc3ccccc23)CC1)[C@H]1CCc2nc(N)sc2C1	4.67	0.031	0.0015	3160			
CCCN(CC[C@H]1CC[C@H](NC(=O)c2ccc(-c3noc(C4CC4)n3)cc2)CC1)[C@H]1CCc2nc(N)sc2C1	11.4	0.633	0.0035	3240			
CCCN(CC[C@H]1CC[C@H](NS(=O)(=O)c2ccc(OC)cc2)CC1)[C@H]1CCc2nc(N)sc2C1	21.3	0.038	0.00078	27500			
O=C(NCCCCN1CCN(c2cccc(Cl)c2Cl)CC1)c1ccc2c(c1)Cc1ccccc1-2						100	> 1000
CCCN(CC[C@H]1CC[C@H](NC(=O)c2ccc(-c3noc(CC)n3)cc2)CC1)[C@H]1CCc2nc(N)sc2C1	17.7	0.328	0.0021	8380			
CCCN(CC[C@H]1CC[C@H](NS(=O)(=O)c2ccc(-c3ccccc3)cc2)CC1)[C@H]1CCc2nc(N)sc2C1	1.8	0.075	0.041	44			
CCCN(CC[C@H]1CC[C@H](NS(=O)(=O)c2ccccc2Cl)CC1)[C@H]1CCc2nc(N)sc2C1	9.48		0.00068				
CCCN(CC[C@H]1CC[C@H](NC(=O)c2ccc(-c3noc(C(C)C)n3)cc2)CC1)[C@H]1CCc2nc(N)sc2C1	10.9	0.47	0.002	5370			
CCCN(CC[C@H]1CC[C@H](NC(=O)/C=C/c2cccc(F)c2)CC1)[C@H]1CCc2nc(N)sc2C1	6.61	0.08	0.0099	666			
CCCN(CC[C@H]1CC[C@H](NC(=O)c2cccc(-n3cncn3)c2)CC1)[C@H]1CCc2nc(N)sc2C1	59.7	0.043	0.003	19900			
CCCN(CC[C@H]1CC[C@H](NC(=O)c2ccc(-c3noc(C)n3)cc2)CC1)[C@H]1CCc2nc(N)sc2C1	34.6	0.442	0.0013	27000			
CCCN(CC[C@H]1CC[C@H](NC(=O)c2ccc3ccccc3n2)CC1)[C@H]1CCc2nc(N)sc2C1	11.3	0.088	0.0016	6050			
O=C(NC/C=C/CN1CCN(c2cccc(Cl)c2Cl)CC1)c1ccc(-c2ccccn2)cc1						100	> 1000
CCCN(CC[C@H]1CC[C@H](NC(=O)c2ccc(-n3cccn3)cc2)CC1)[C@H]1CCc2nc(N)sc2C1	14.4	0.052	0.003	4870			
CCCN(CC[C@H]1CC[C@H](NC(=O)c2ccc(-n3ccnc3)cc2)CC1)[C@H]1CCc2nc(N)sc2C1	37.2	0.023	0.0019	19900			

SMILES	Ki [1] [µM]	Ki [2] [µM]	Ki (D(3) dopamine receptor [3]) [µM]	Ratio Ki (Rattus norvegicus)	EC50 (D(3) dopamine receptor [4]) [µM]	Selectivity ratio [5]	Selectivity ratio [6]
CCCN(CC[C@H]1CC[C@H](NC(=O)/C=C/c2ccccc2Cl)CC1)[C@H]1CCc2nc(N)sc2C1	5.44	0.03	0.0012	4650			
CCCN(CC[C@H]1CC[C@H](NC(=O)c2ccc(-n3cncn3)cc2)CC1)[C@H]1CCc2nc(N)sc2C1	14	0.056	0.0024	5960			
CCCN(CC[C@H]1CC[C@H](NS(=O)(=O)c2cccc(C)c2)CC1)[C@H]1CCc2nc(N)sc2C1	8.4	0.062	0.00089	9470			
CCCN(CC[C@H]1CC[C@H](NC(=O)/C=C/c2ccccc2F)CC1)[C@H]1CCc2nc(N)sc2C1	10	0.092	0.0029	3510			
CCCN(CC[C@H]1CC[C@H](NC(=O)c2cccc(-c3noc(CC)n3)c2)CC1)[C@H]1CCc2nc(N)sc2C1	5	0.491	0.0015	3450			
CCCN(CC[C@H]1CC[C@H](NC(=O)/C=C/c2cccc(OC)c2)CC1)[C@H]1CCc2nc(N)sc2C1	8.89	0.122	0.0093	953			
CCCN(CC[C@H]1CC[C@H](NS(=O)(=O)c2ccc(C(C)(C)C)cc2)CC1)[C@H]1CCc2nc(N)sc2C1	3.15	0.101	0.005	626			
O=C(NCC[C@@H](O)CN1CCN(c2cccc(Cl)c2Cl)CC1)c1cc2ccccc2[nH]1						100	> 1000
CCCN(CC[C@H]1CC[C@H](NC(=O)c2cccc3cnccc23)CC1)[C@H]1CCc2nc(N)sc2C1	26.4	0.064	0.0059	4500			
CCCN(CC[C@H]1CC[C@H](NS(=O)(=O)c2cccc(F)c2)CC1)[C@H]1CCc2nc(N)sc2C1	10.4		0.00072				
CCCN(CC[C@H]1CC[C@H](NC(=O)/C=C/c2ccc(Cl)cc2)CC1)[C@H]1CCc2nc(N)sc2C1	4.03	0.027	0.0025	1600			
CCCN(CC[C@H]1CC[C@H](NC(=O)/C=C/c2ccccc2OC)CC1)[C@H]1CCc2nc(N)sc2C1	7.92	0.102	0.0081	983			
CCCN[C@H]1CCc2nc(N)sc2C1 [PRAMIPEXOLE]	> 100						
CCCN(CC[C@H]1CC[C@H](NS(=O)(=O)c2ccc3ccccc3c2)CC1)[C@H]1CCc2nc(N)sc2C1	3.69	0.014	0.0015	2430			
CCCN(CCN1CCN(c2ccc(-c3ccccc3)cc2)CC1)[C@H]1CCc2nc(N)sc2C1						100	> 1000
CCCN(CC[C@H]1CC[C@H](NC(=O)/C=C/c2ccc(F)cc2)CC1)[C@H]1CCc2nc(N)sc2C1	4.67	0.066	0.001	4670			
CCCN(CC[C@H]1CC[C@H](NS(=O)(=O)c2ccc(Cl)cc2)CC1)[C@H]1CCc2nc(N)sc2C1	8.29	0.071	0.00095	8750			
CCCN(CC[C@H]1CC[C@H](NS(=O)(=O)c2ccc(C(C)C)cc2)CC1)[C@H]1CCc2nc(N)sc2C1	8.15	0.133	0.0045	1810			
CCCN(CC[C@H]1CC[C@H](NC(=O)c2cccc(-n3ccnc3)c2)CC1)[C@H]1CCc2nc(N)sc2C1	24.7	0.032	0.0011	21800			
CCCN(CC[C@H]1CC[C@H](NS(=O)(=O)c2ccc(Cl)nc2)CC1)[C@H]1CCc2nc(N)sc2C1	8.19	0.028	0.00063	12900			
CCCN(CC[C@H]1CC[C@H](NC(=O)/C=C/c2ccc(OC)cc2)CC1)[C@H]1CCc2nc(N)sc2C1	8.03	0.094	0.0067	1200			
CCCN(CC[C@H]1CC[C@H](NS(=O)(=O)c2ccccc2)CC1)[C@H]1CCc2nc(N)sc2C1	23.4	0.057	0.00079	29700			

— ChEMBL document CHEMBL2146442, “High-affinity and selective dopamine D₃ receptor full agonists” (Bioorg Med Chem Lett, 2012)
